Legend:
[1] = target: Mitogen-activated protein kinase 14 (Homo sapiens, UniProt Q16539); test: Inhibition of p38alpha K2 labeling site in human Huh-7 cells at 1 uM by KiNativ Profiling analysis relative to control; type: cell-based
[2] = target: Interferon-induced, double-stranded RNA-activated protein kinase (Homo sapiens) (UniProt P19525); test: Inhibition of PKR K2 labeling site in human Huh-7 cells at 10 uM by KiNativ Profiling analysis relative to control; type: cell-based
[3] = target: Cyclin-dependent kinase 7 (Homo sapiens) (UniProt P50613); test: Inhibition of CDK7 K2 labeling site in human Huh-7 cells at 1 uM by KiNativ Profiling analysis relative to control; type: cell-based
Sequence of Cyclin-dependent kinase 7 (Homo sapiens) (P50613 whole entry): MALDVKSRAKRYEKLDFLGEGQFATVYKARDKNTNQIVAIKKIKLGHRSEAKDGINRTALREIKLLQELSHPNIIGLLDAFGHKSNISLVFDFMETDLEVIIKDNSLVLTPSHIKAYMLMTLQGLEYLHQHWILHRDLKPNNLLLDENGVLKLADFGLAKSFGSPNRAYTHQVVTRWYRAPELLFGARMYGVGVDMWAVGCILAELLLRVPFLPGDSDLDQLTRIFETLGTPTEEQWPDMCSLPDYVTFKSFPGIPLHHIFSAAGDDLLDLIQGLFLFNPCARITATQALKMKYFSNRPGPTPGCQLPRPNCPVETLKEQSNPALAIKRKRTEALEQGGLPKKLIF

[4] = target: Tyrosine-protein kinase CSK (Homo sapiens, UniProt P41240); test: Inhibition of CSK ACT labeling site harbouring VSDFGLTKEASSTQDTGKLPVK in human A-375 cells at 0.5 uM by KiNativ Profiling analysis relative to control; type: cell-based
Sequence of Tyrosine-protein kinase CSK (P41240 2-450 limits assumed): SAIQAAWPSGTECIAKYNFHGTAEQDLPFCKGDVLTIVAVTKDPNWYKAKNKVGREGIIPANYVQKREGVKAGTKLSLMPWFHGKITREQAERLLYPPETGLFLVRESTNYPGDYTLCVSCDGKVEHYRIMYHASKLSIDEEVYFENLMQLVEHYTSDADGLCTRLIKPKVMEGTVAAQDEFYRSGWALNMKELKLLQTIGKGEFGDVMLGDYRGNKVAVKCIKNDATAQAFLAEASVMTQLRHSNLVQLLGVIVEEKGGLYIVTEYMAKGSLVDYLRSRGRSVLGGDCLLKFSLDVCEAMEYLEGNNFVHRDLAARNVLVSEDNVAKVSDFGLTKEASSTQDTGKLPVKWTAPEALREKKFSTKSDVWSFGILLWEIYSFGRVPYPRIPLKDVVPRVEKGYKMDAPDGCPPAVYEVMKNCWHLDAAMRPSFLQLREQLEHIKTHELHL

[5] = target: Focal adhesion kinase 1 (Homo sapiens) (UniProt Q05397); test: Inhibition of FAK K1 labeling site in human Huh-7 cells at 10 uM by KiNativ Profiling analysis relative to control; type: cell-based
Sequence of Focal adhesion kinase 1 (Homo sapiens) (Q05397 2-1052 limits assumed): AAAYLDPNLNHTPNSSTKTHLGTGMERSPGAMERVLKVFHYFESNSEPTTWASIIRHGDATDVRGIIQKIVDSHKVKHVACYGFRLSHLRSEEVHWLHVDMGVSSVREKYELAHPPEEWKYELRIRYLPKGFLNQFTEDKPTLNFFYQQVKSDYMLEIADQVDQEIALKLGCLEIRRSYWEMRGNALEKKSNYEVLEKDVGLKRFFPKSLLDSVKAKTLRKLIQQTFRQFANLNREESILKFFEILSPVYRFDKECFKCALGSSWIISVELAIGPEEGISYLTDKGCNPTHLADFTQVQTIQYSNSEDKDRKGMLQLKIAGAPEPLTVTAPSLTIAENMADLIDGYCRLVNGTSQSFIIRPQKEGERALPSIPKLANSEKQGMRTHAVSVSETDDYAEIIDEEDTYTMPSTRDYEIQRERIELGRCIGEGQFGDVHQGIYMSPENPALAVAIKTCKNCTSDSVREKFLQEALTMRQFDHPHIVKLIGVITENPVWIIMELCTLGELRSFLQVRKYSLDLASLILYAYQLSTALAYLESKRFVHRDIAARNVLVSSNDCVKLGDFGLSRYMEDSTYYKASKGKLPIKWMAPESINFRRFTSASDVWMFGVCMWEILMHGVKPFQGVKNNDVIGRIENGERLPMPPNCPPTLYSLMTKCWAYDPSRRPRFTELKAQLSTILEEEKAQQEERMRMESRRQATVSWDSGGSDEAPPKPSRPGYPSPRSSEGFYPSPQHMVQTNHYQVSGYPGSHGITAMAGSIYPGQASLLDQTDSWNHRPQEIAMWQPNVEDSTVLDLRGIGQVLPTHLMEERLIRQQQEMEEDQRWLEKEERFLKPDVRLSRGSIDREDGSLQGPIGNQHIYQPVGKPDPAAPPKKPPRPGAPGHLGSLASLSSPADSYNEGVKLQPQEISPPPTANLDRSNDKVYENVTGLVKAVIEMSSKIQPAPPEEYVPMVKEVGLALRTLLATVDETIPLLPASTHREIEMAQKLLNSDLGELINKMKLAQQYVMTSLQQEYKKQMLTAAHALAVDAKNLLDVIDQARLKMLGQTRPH

[6] = target: Calcium/calmodulin-dependent protein kinase type II subunit gamma (Homo sapiens) (UniProt Q13555); test: Inhibition of CaMK2g Lys1 labeling site harbouring TSTQEYAAKIINTK in human A-375 cells at 0.05 uM by KiNativ Profiling analysis relative to control; type: cell-based
[7] = target: Fibroblast growth factor receptor 4 (Homo sapiens) (UniProt P22455); test: Inhibition of FGFR4 (unknown origin) at 1 uM by Ambit Kinomescan binding assay relative to control; values are per cent of control
Sequence of Fibroblast growth factor receptor 4 (Homo sapiens) (P22455 22-802 limits assumed): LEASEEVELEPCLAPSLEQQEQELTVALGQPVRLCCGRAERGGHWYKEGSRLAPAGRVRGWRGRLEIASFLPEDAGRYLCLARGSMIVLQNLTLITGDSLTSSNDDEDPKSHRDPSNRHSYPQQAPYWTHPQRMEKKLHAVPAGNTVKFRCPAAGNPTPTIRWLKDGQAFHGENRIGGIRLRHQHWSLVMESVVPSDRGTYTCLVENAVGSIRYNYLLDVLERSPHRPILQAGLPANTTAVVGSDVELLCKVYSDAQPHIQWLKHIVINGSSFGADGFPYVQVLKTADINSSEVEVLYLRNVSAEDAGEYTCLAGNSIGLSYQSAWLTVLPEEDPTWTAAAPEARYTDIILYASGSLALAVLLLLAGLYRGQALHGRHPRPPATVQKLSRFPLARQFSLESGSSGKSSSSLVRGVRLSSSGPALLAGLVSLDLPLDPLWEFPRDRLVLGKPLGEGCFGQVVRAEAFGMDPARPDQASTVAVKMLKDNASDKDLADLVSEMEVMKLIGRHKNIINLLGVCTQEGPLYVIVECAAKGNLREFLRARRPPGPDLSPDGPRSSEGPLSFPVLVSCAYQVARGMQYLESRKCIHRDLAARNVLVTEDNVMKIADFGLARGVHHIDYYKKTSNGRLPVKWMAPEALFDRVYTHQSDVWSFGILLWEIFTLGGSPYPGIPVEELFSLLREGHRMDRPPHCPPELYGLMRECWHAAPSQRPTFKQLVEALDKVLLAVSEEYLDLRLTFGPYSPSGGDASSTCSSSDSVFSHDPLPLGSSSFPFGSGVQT

[8] = target: Ribosomal protein S6 kinase beta-1 (Homo sapiens) (UniProt P23443); test: Inhibition of S6K1 (unknown origin) at 1 uM by Ambit Kinomescan binding assay relative to control
Sequence of Ribosomal protein S6 kinase beta-1 (Homo sapiens) (P23443 whole entry, looked up): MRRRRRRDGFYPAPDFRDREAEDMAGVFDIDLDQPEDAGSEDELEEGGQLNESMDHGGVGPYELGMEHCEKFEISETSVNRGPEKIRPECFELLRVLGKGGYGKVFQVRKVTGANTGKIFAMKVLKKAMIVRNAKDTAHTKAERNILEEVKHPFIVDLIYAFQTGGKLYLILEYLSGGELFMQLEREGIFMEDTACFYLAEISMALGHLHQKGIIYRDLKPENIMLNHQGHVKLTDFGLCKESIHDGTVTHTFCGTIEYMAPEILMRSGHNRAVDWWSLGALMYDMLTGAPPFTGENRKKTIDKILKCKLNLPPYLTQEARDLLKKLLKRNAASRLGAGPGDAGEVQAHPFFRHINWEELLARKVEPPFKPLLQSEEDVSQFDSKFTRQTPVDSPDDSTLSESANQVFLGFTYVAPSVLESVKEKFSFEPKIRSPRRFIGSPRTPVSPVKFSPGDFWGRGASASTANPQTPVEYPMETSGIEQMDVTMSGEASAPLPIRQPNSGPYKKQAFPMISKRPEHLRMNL

[9] = target: Serine/threonine-protein kinase 32C (Homo sapiens) (UniProt Q86UX6); test: Inhibition of YANK3 Lys2 labeling site in human A-375 cells at 0.5 uM by KiNativ Profiling analysis relative to control; type: cell-based
Sequence of Serine/threonine-protein kinase 32C (Homo sapiens) (Q86UX6 whole entry): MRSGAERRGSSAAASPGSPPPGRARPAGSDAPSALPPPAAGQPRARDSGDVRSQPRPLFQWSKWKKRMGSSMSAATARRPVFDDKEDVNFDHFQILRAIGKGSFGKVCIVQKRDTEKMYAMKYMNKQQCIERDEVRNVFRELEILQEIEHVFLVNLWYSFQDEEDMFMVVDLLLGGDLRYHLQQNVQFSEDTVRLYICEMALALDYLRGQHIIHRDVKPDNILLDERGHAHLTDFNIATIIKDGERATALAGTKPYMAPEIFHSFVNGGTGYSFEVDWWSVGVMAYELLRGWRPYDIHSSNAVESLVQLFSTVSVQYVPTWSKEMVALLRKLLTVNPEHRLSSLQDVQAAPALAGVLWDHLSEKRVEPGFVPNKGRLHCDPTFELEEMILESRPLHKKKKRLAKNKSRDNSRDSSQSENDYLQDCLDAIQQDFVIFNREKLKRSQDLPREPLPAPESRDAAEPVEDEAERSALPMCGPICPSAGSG

[10] = target: Eukaryotic translation initiation factor 2-alpha kinase 1 (Homo sapiens) (UniProt Q9BQI3); test: Inhibition of EIF2AK1 (unknown origin) at 1 uM by Ambit Kinomescan binding assay relative to control; values are per cent of control
[11] = target: T1, Aurora kinase C (Homo sapiens) (UniProt Q9UQB9); test: Inhibition of AURKC (unknown origin) at 1 uM by Ambit Kinomescan binding assay relative to control; values are per cent of control
T1 sequence (whole entry): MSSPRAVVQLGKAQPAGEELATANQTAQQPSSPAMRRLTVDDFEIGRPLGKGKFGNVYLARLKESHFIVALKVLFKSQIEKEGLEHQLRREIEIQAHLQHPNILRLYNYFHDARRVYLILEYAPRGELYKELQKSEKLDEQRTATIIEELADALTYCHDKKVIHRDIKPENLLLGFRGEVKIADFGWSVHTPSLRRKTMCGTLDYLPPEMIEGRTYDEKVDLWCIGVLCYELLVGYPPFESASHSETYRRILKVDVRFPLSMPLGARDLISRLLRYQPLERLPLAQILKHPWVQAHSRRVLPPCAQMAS

[12] = system: Tyrosine-protein kinase ABL1 (Homo sapiens), P00519 [F317I]; test: Inhibition of nonphosphorylated ABL1 F317I mutant (unknown origin) at 1 uM by Ambit Kinomescan binding assay relative to control
[13] = target: Serine/threonine-protein kinase 26 (Homo sapiens) (UniProt Q9P289); test: Inhibition of MST4 Lys2 labeling site in human Huh-7 cell lysate at 1 uM by KiNativ Profiling analysis relative to control; type: subcellular
[14] = target: Cyclin-dependent kinase 6 (Homo sapiens) (UniProt Q00534); test: Inhibition of CDK6 Lys2 labeling site in human Huh-7 cell lysate at 1 uM by KiNativ Profiling analysis relative to control; type: subcellular
[15] = target: Phosphatidylinositol 4-kinase beta (Homo sapiens) (UniProt Q9UBF8); test: Inhibition of PI4KB ATP labeling site harbouring VPHTQAVVLNSKDKAPYLIYVEVLECENFDTTSVPAR in human Huh-7 cell lysate at 1 uM by KiNativ Profiling analysis relative to control; type: subcellular
Sequence of Phosphatidylinositol 4-kinase beta (Homo sapiens) (Q9UBF8 2-816 limits assumed): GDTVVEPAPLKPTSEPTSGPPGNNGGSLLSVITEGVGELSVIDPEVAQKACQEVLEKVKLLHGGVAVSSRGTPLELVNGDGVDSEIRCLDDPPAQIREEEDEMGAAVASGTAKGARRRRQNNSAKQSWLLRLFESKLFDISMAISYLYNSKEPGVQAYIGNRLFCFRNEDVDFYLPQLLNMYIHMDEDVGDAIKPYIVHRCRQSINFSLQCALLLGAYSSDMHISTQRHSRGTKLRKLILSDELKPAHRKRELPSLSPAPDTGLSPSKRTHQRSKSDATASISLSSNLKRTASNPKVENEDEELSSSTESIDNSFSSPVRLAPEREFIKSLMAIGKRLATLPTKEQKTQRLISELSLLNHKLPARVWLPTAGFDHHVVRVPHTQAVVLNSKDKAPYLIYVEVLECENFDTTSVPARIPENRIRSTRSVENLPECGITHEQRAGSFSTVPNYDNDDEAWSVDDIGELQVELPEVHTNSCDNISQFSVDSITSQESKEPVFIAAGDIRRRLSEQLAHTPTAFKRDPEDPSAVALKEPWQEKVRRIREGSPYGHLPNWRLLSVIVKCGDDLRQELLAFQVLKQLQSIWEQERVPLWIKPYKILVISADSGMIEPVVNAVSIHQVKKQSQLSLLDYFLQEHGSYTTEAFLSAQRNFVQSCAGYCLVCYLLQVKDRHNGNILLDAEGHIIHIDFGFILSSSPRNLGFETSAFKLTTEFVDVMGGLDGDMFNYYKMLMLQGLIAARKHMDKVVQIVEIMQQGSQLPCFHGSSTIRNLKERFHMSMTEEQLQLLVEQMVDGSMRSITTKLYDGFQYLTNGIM

[16] = Inhibition of CASK Lys1 labeling site in human Huh-7 cells at 1 uM by KiNativ Profiling analysis relative to control
[17] = target: T2, Serine/threonine-protein kinase TBK1 (Homo sapiens) (UniProt Q9UHD2); test: Inhibition of TBK1 Lys1 labeling site in human Huh-7 cell lysate at 1 uM by KiNativ Profiling analysis relative to control; type: subcellular
T2 sequence (whole entry): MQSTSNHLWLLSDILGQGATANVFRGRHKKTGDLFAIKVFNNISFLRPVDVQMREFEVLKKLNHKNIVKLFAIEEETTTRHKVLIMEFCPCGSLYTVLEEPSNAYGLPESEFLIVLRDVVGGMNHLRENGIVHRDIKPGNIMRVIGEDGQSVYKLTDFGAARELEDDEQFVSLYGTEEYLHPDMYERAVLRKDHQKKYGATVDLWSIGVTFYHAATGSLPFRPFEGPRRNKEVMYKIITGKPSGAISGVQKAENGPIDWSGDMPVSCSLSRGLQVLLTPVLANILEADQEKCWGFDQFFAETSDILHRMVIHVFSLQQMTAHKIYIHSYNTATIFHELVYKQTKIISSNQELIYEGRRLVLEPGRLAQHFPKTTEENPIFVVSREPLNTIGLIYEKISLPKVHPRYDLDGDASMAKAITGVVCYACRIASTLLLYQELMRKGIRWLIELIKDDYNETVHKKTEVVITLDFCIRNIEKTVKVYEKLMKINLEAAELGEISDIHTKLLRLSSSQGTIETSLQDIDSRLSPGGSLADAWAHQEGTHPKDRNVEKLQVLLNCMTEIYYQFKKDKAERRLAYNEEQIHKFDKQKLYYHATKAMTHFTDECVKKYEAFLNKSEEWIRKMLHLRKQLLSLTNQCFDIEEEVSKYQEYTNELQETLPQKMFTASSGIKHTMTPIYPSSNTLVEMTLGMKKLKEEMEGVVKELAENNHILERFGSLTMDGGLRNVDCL

[18] = target: Serine/threonine-protein kinase Nek7 (Homo sapiens) (UniProt Q8TDX7); test: Inhibition of NEK7 Lys1 labeling site in human Huh-7 cells at 1 uM by KiNativ Profiling analysis relative to control; type: cell-based

Sequence of Interferon-induced, double-stranded RNA-activated protein kinase (Homo sapiens) (P19525 whole entry): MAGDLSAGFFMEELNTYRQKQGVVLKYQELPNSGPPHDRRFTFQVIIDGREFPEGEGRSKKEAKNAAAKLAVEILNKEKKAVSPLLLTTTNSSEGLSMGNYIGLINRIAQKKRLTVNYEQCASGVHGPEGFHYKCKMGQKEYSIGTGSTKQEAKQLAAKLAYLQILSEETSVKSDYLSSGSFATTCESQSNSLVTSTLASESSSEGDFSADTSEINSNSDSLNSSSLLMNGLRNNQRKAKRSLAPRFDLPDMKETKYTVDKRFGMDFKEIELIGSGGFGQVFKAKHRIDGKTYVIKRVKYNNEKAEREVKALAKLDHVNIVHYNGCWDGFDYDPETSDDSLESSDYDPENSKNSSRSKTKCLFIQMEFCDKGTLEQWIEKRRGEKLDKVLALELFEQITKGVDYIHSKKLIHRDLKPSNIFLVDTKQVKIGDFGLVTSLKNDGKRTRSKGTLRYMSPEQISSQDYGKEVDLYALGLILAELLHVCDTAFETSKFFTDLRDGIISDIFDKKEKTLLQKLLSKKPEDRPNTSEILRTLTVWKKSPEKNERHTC

CCN1CCN(Cc2ccc(NC(=O)c3ccc(C)c(Oc4ccnc5[nH]ccc45)c3)cc2C(F)(F)F)CC1
inhibition [1]: 7.1% | inhibition [2]: 7.9% | inhibition [3]: 5.6% | inhibition [4]: 36.5% | inhibition [5]: 13%

CCN1CCN(Cc2ccc(NC(=O)c3ccc(C)c(/C=C/c4cnc5[nH]ccc5c4OC)c3)cc2C(F)(F)F)CC1
inhibition [6]: 26.3% | residual activity [7]: 8.1% | inhibition [8]: 46% | inhibition [9]: 11.5% | residual activity [10]: 100% | residual activity [11]: 34% | inhibition [12]: 19%

CNc1cc(Oc2cc(C(=O)Nc3cc(N4CCN(C)CC4)cc(C(F)(F)F)c3)ccc2C)ncn1
inhibition [13]: -0.3% | inhibition [14]: -1.9% | inhibition [15]: -1% | inhibition [16]: 16% | inhibition [17]: -1.5% | inhibition [18]: 7.6%

Reference: ChEMBL document CHEMBL5696442, “Discovery of type II inhibitors of TGFβ-activated kinase 1 (TAK1) and mitogen-activated protein kinase kinase kinase kinase 2 (MAP4K2)” (J Med Chem, 2015)
